The values below come from paper PMC4380168 (Bioorganic & medicinal chemistry, 2015).

Like-named read-outs stand apart in the source and are kept apart here.

The test system of one series is A549 (lung cancer). As to the kind of experiment: Cytotoxicity against A549 lung carcinoma cell line. It is filed as cell-based, human.
Series [1] has as its system MDA-MB-231 (breast cancer). Briefly: Cytotoxicity against MDA-MB-231 breast carcinoma cell line. The class given is cell-based. Conditions: Homo sapiens.
For a further series, the system named is SK-OV-3 (ovarian cancer). Briefly: Cytotoxicity against SK-OV-3 ovarian carcinoma cell line. The class given is cell-based, human.
The nature of series [2]: Cytotoxicity against MRC-5 cell line. The class given is cell-based, human. Conditions: human, MRC-5 cells (human lung fibroblast, embryonic cell line).
For series [3], the system named is polio-infected HeLa cells. The settings on record: at 10^−7 M; ref [5],[4b]; cited from earlier work.
The subject of another series is P.f. K1. The settings on record: read-out: P.f. K1 IC50; antiprotozoal; ref [5],[4b]; cited from earlier work.
For another series, the system named is MRC-5. The settings on record: read-out: MRC-5 IC50; cytotoxicity against human eukaryotic cell lines; ref [5],[4b]; cited from earlier work.
For series [4] the following is noted: ref [7]; cited from earlier work.
The subject of series [5] is MRC-5 (human lung fibroblast). Briefly: Cytotoxicity against MRC-5 cell line. Conditions: read-out: MRC-5 EC50 (human lung fibroblast); triplicates. The class given is cell-based.

In general, EC50 refers to the midpoint of the concentration-response curve. The term IC50 denotes the concentration that gives 50% inhibition.

For the molecule `CC(=O)c1cccc(N[C@H]2[C@H](N)[C@@](NC(=O)N(C)C)([C@H](C)O)[C@@](C)(O)[C@@]2(O)COC(=O)c2c(C)cccc2O)c1` [Compound 1, pactamycin], the EC50 turned out to be 160 nM with A549 (lung cancer) (Homo sapiens, A549, read-out: A549 EC50); 160 nM in the series with A549 (lung cancer) (Homo sapiens, A549, read-out: A549 EC50 (lung cancer)); 124 nM in series [1] (MDA-MB-231, read-out: MDA-MB-231 EC50); 124 nM in [1] (MDA-MB-231, read-out: MDA-MB-231 EC50 (breast cancer)); 129 nM in the series with SK-OV-3 (ovarian cancer) (Homo sapiens, SK-OV-3, read-out: SK-OV-3 EC50 (ovarian cancer)); 53 nM in series [2]. The “inhibition of polio-infected HeLa cells” value in [3] is listed as “complete inhibition”. Moreover, the IC50 in the series with P.f. K1 was 14.2 nM; in the series on MRC-5, 95 nM.

On to `CC[C@]1(NC(=O)N(C)C)[C@@H](N)[C@H](Nc2cccc(C(C)=O)c2)[C@](O)(COC(=O)c2c(C)cccc2O)[C@]1(C)O` [Compound 2, 7-Deoxypactamycin], for which the “antiprotozoal activity relative to 1” value in [4] is on record as “increased antiprotozoal activity relative to 1”.

`CC(=O)c1cccc(N[C@H]2[C@H](N)[C@]3(NC(=O)O[C@H]3C)[C@@](C)(O)[C@@]2(O)CO)c1` [Compound 21, De-6-MSA pactamycate]: the half-maximal effective concentration (EC50) with A549 (lung cancer) (read-out: A549 EC50 (lung cancer), triplicates) came to 6000 nM; in the series with SK-OV-3 (ovarian cancer) (read-out: SK-OV-3 EC50 (ovarian cancer), triplicates), 3800 nM; in series [5], 2930 nM.

Turning to jogyamycin [Compound 3], the “antiprotozoal activity relative to 1” value in [4] is given as “increased antiprotozoal activity relative to 1”.
